Experimental data taken from patent publication EP4671247A1, “SUBSTITUTED PYRAZOLOPYRIMIDINE COMPOUND AND PHARMACEUTICAL USE THEREOF” (Japan Tobacco Inc., priority 2023, dated 2024).

Molecular target: T1, NLRP3 inflammasome (Homo sapiens, UniProt Q96P20)
T1 construct: host or cells: THP1-Null cells (PMA-differentiated, LPS-primed, nigericin-stimulated)
Assay: Evaluation of NLRP3 inflammasome inhibitory activity (inhibition of IL-1β production in LPS/Nigericin-stimulated THP1-Null cells, AlphaLISA)
Format: cell-based
Details: IC50, IL-1β production in THP1-Null cells; PMA, 1 µg/mL Lipopolysaccharides 3 hours, Nigericin 7.5 µmol/L 1.5 hours
Procedure: The NLRP3 inflammasome inhibitory activity of test compounds were evaluated on the basis of the inhibitory activity of the IL-1β production in THP1-Null cells (Product Number: thp-null, InvivoGen).
The supernatant of the culture was removed, and thereto was added media for assay (25 µL/well) containing 1 µg/mL Lipopolysaccharides (Product Number: L2654, Sigma-Aldrich (registered trademark)). […] The supernatant of the culture was removed. […] A solution containing a test compound (20 µL/well) was added to test compound-setting wells. […] The supernatant of the culture was cryonically stored (set at -20°C) until measurement of IL-1β.
The amount of IL-1β in the culture supernatant was quantitated with AlphaLISA (registered trademark) Human IL-1β Detection Kit (Product Number: AL220C, Perkin Elmer). Fluorescence intensity was measured with a microplate reader EnSpier (Model number: 2300-00J, Perkin Elmer) or EnSight (Model number: HH34000000, Perkin Elmer) according to procedure manuals attached thereto. Inhibition rates of the test compound-setting wells were calculated on the basis of 100% for the blank-setting wells and 0% for the control-setting wells.

T1 sequence (Q96P20 whole entry): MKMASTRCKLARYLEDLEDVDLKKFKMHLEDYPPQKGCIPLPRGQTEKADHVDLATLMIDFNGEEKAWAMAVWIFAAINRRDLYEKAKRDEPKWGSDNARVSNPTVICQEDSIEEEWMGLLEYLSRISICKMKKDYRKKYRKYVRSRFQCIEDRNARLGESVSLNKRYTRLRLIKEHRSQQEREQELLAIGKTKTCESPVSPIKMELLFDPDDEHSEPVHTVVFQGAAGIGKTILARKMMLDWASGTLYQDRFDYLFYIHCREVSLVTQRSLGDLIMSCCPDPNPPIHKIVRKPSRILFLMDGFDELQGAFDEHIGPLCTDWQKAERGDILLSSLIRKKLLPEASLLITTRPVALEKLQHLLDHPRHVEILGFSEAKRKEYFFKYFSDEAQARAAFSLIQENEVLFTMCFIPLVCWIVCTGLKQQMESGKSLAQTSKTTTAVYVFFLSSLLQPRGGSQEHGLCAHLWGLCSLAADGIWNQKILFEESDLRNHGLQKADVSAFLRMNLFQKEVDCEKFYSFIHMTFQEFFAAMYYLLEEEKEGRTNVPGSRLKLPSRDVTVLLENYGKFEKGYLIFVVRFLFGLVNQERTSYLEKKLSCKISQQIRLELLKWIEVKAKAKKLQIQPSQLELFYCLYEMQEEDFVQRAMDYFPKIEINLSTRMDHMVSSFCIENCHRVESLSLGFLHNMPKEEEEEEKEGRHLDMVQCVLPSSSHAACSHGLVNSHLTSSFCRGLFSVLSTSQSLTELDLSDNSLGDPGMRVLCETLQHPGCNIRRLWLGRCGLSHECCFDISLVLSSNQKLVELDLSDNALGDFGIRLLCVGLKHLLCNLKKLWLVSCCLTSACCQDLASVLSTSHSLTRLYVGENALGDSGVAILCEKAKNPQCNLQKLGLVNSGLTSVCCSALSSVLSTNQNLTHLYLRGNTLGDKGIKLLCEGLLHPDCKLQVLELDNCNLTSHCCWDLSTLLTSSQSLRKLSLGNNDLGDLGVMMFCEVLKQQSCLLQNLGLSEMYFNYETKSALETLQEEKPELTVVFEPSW

Row | Compound | IC50 [nM]
1 | Cc1nc2nn(-c3c(C)cc(Br)cc3C)cc2c(=O)[nH]1 [Example 18] | 220

Same assay, conditions: IL-1β production in THP1-Null cells; PMA, 1 µg/mL Lipopolysaccharides 3 hours, Nigericin 7.5 µmol/L 1.5 hours

Row | Compound | IC50 [nM]
2 | Cc1cc(C(C)(F)F)cc(C)c1-n1cc2c(=O)[nH]c(C3(F)CCOC3)nc2n1 (single isomer, unassigned) [Example 130] | 240
3 | Cc1cc(C2CC2)cc(C)c1-n1cc2c(=O)[nH]c(C(C)O)nc2n1 (single isomer, unassigned) [Example 156] | 13
4 | Cc1cc(C2CC2)cc(C)c1-n1cc2c(=O)[nH]c(C(C)O)nc2n1 (single isomer, unassigned) [Example 157] | 340
5 | Cc1cc(C2CC2)cc(C)c1-n1cc2c(=O)[nH]c(C(O)C(F)F)nc2n1 (single isomer, unassigned) [Example 169] | 26
6 | Cc1cc(C2CC2)cc(C)c1-n1cc2c(=O)[nH]c(C(O)C(F)F)nc2n1 (single isomer, unassigned) [Example 170] | 510
7 | Cc1cc(OC(F)F)cc(C)c1-n1cc2c(=O)[nH]c([C@@H]3C[C@H]3F)nc2n1 (single isomer, unassigned) [Example 172] | 8
8 | Cc1cc(OC(F)F)cc(C)c1-n1cc2c(=O)[nH]c(C3CC3F)nc2n1 (single isomer, unassigned) [Example 173] | 15
9 | Cc1cc(OC(F)F)cc(C)c1-n1cc2c(=O)[nH]c(C3CCOCC3F)nc2n1 (single isomer, unassigned) [Example 176] | 75
10 | Cc1cc(OC(F)F)cc(C)c1-n1cc2c(=O)[nH]c(C3CCOCC3F)nc2n1 (single isomer, unassigned) [Example 177] | 24
11 | Cc1cc(OC(F)F)cc(C)c1-n1cc2c(=O)[nH]c(C3COCC3F)nc2n1 (single isomer, unassigned) [Example 182] | 8
12 | Cc1cc(OC(F)F)cc(C)c1-n1cc2c(=O)[nH]c(C3COCC3F)nc2n1 (single isomer, unassigned) [Example 183] | 35
13 | Cc1cc(C(C)(F)F)cc(C)c1-n1cc2c(=O)[nH]c(C3CCOCCO3)nc2n1 (single isomer, unassigned) [Example 187] | 67
14 | Cc1cc(C(C)(F)F)cc(C)c1-n1cc2c(=O)[nH]c(C3CCOCCO3)nc2n1 (single isomer, unassigned) [Example 188] | 190
15 | Cc1cc(OC(F)F)cc(C)c1-n1cc2c(=O)[nH]c(C3CCOCCO3)nc2n1 (single isomer, unassigned) [Example 193] | 27
16 | Cc1cc(OC(F)F)cc(C)c1-n1cc2c(=O)[nH]c(C3CCOCCO3)nc2n1 (single isomer, unassigned) [Example 194] | 100

Same assay, conditions: IL-1β production in THP1-Null cells; PMA, 1 µg/mL Lipopolysaccharides 3 hours, Nigericin 7.5 µmol/L 1.5 hours; read-out: IC50

Row | Compound | IC50 [nM]
17 | Cc1cc(C(C)(F)F)cc(C)c1-n1cc2c(=O)[nH]c([C@@H]3C[C@H]3F)nc2n1 (single isomer, unassigned) [Example 146] | 15
18 | Cc1cc(C(C)(F)F)cc(C)c1-n1cc2c(=O)[nH]c([C@H]3C[C@@H]3F)nc2n1 (single isomer, unassigned) [Example 147] | 24
19 | Cc1cc(C(C)(F)F)cc(C)c1-n1cc2c(=O)[nH]c([C@@H](C)O)nc2n1 (single isomer, unassigned) [Example 154] | 25
20 | Cc1cc(C(C)(F)F)cc(C)c1-n1cc2c(=O)[nH]c([C@H](C)O)nc2n1 (single isomer, unassigned) [Example 155] | 610
21 | Cc1cc(OC(F)F)cc(C)c1-n1cc2c(=O)[nH]c([C@@H](C)O)nc2n1 (single isomer, unassigned) [Example 165] | 75
22 | Cc1cc(OC(F)F)cc(C)c1-n1cc2c(=O)[nH]c([C@H](C)O)nc2n1 (single isomer, unassigned) [Example 166] | 1300
23 | Cc1cc(OC(F)F)cc(C)c1-n1cc2c(=O)[nH]c(C3(O)CCOCC3F)nc2n1 (single isomer, unassigned) [Example 174] | 30
24 | Cc1cc(C2CC2)cc(C)c1-n1cc2c(=O)[nH]c(C3CCOCCO3)nc2n1 (single isomer, unassigned) [Example 178, 2-(4-cyclopropyl-2,6-dimethylphenyl)-6-(1,4-dioxepan-5-yl)-2,5-dihydro-4H-pyrazolo[3,4-d]pyrimidin-4-one] | 11
25 | Cc1cc(C2CC2)cc(C)c1-n1cc2c(=O)[nH]c(C3CCOCCO3)nc2n1 (single isomer, unassigned) [Example 179, 2-(4-cyclopropyl-2,6-dimethylphenyl)-6-(1,4-dioxepan-5-yl)-2,5-dihydro-4H-pyrazolo[3,4-d]pyrimidin-4-one] | 51
26 | Cc1ccccc1-n1cc2c(=O)[nH]c(C3CCCC3)nc2n1 [Example 1] | 2300
27 | Cc1ccccc1-n1cc2c(=O)[nH]c(C3=CCCC3)nc2n1 [Example 2] | 1300
28 | Cc1ccc(-n2cc3c(=O)[nH]c(C4CC4)nc3n2)c(C)c1 [Example 3] | 240
29 | Cc1ccc(-n2cc3c(=O)[nH]c(C)nc3n2)c(C)c1 [Example 4] | 540
30 | COCc1nc2nn(-c3ccc(C)cc3C)cc2c(=O)[nH]1 [Example 5] | 580
31 | Cc1ccc(-n2cc3c(=O)[nH]c(CC(C)C)nc3n2)c(C)c1 [Example 6] | 430
32 | CCc1nc2nn(-c3ccc(C)cc3C)cc2c(=O)[nH]1 [Example 8] | 230
33 | COCCc1nc2nn(-c3ccc(C)cc3C)cc2c(=O)[nH]1 [Example 9] | 1100
34 | Cc1ccc(-n2cc3c(=O)[nH]c(C(F)F)nc3n2)c(C)c1 [Example 10] | 13000
35 | Cc1nc2nn(-c3c(C)cc(C4CC4)cc3C)cc2c(=O)[nH]1 [Example 19] | 170
36 | Cc1cc(C2CC2)cc(F)c1-n1cc2c(=O)[nH]c(C3CC3)nc2n1 [Example 20] | 13

Row | Compound | IC50 [nM]
37 | Cc1cc(C2CC2)cc(C)c1-n1cc2c(=O)[nH]c(C3CC3)nc2n1 [Example 21] | 12
38 | Cc1cc(C2CC2)cc(C)c1-n1cc2c(=O)[nH]c(C3CCC3)nc2n1 [Example 22] | 12
39 | CCc1nc2nn(-c3c(C)cc(C4CC4)cc3C)cc2c(=O)[nH]1 [Example 23] | 24
40 | Cc1cc(C2CC2)ccc1-n1cc2c(=O)[nH]c(C3CC3)nc2n1 [Example 24] | 47
41 | COCc1cc(C2CC2)ccc1-n1cc2c(=O)[nH]c(C3CC3)nc2n1 [Example 25] | 44
42 | COc1cc(C2CC2)ccc1-n1cc2c(=O)[nH]c(C3CC3)nc2n1 [Example 26] | 76
43 | COCc1nc2nn(-c3c(C)cc(Br)cc3C)cc2c(=O)[nH]1 [Example 27] | 29
44 | Cc1cc(Br)cc(C)c1-n1cc2c(=O)[nH]c(C3(C#N)CC3)nc2n1 [Example 30] | 280
45 | Cc1ccc(-n2cc3c(=O)[nH]c(C4CCOCC4)nc3n2)c(C)c1 [Example 33] | 68
46 | Cc1ccc(-n2cc3c(=O)[nH]c(CCCS(C)(=O)=O)nc3n2)c(C)c1 [Example 37] | 1100
47 | Cc1cc(C2CC2)cc(C)c1-n1cc2c(=O)[nH]c(C3COC3)nc2n1 [Example 39] | 16
48 | Cc1cc(C2CC2)cc(C)c1-n1cc2c(=O)[nH]c(C3CCOCC3)nc2n1 [Example 42] | 4
49 | COCc1nc2nn(-c3c(C)cc(C4CC4)cc3C)cc2c(=O)[nH]1 [Example 43] | 42
50 | Cc1cc(C2CC2)cc(C)c1-n1cc2c(=O)[nH]c(C3(C)COC3)nc2n1 [Example 44] | 47
51 | Cc1cc(C2CC2)cc(C)c1-n1cc2c(=O)[nH]c(C3CC(F)(F)C3)nc2n1 [Example 45] | 7
52 | Cc1cc(Br)cc(C)c1-n1cc2c(=O)[nH]c(COCC3CCOCC3)nc2n1 [Example 46] | 140
53 | Cc1cc(C2CC2)cc(C)c1-n1cc2c(=O)[nH]c(COCC3CCOCC3)nc2n1 [Example 47] | 180
54 | Cc1cc(C2CC2)cc(C)c1-n1cc2c(=O)[nH]c(C3(F)CC3)nc2n1 [Example 48] | 23
55 | Cc1cc(C2CC2)cc(C)c1-n1cc2c(=O)[nH]c(C34CC(F)(C3)C4)nc2n1 [Example 49] | 24

Same assay, conditions: test compound at 2.4 µM; IL-1β production in THP1-Null cells

Row | Compound | inhibition at 2.4 µM [%]
56 | COC(=O)Cn1c(C)nc2nn(-c3ccc(C)cc3C)cc2c1=O [Example 14] | -13
57 | Cc1ccc(-n2cc3c(=O)n(CC(=O)O)c(C)nc3n2)c(C)c1 [Example 15] | -3
58 | Cc1ccc(-n2cc3c(=O)n(CC(=O)N(C)C)c(C)nc3n2)c(C)c1 [Example 16] | -14
59 | CNC(=O)Cn1c(C)nc2nn(-c3ccc(C)cc3C)cc2c1=O [Example 17] | -15
60 | Cc1ccc(-n2cc3c(=O)[nH]c(CN4CCOCC4)nc3n2)c(C)c1 [Example 38] | 40

Same assay, conditions: test compound at 24 µM; IL-1β production in THP1-Null cells

Row | Compound | inhibition at 24 µM [%]
61 | CCOc1nc(C)nc2nn(-c3ccc(C)cc3C)cc12 [Example 11] | 43
62 | COc1nc(C)nc2nn(-c3ccc(C)cc3C)cc12 [Example 12] | 26
63 | Cc1ccc(-n2cc3c(=O)n(C)c(C)nc3n2)c(C)c1 [Example 13, 2-(2,4-dimethylphenyl)-5,6-dimethyl-2,5-dihydro-4H-pyrazolo[3,4-d]pyrimidin-4-one] | 3

Same assay, conditions: test compound at 30 µM; IL-1β production in THP1-Null cells

Row | Compound | inhibition at 30 µM [%]
64 | Cc1ccc(-n2cc3c(=O)[nH]c(C(F)(F)F)nc3n2)c(C)c1 [Example 7] | 44
